Source: patent US9974869B2, “Chelated PSMA inhibitors” (Cancer Targeted Technology LLC, priority 2011, dated 2018)
pIC50: −log10 of the molar value.

Legend:
[1] = target: PSMA (Homo sapiens, UniProt Q04609); experiment: PSMA inhibition (IC50, mode of inhibition); assay type: biochemical
[2] = Acid and base stability noted in preliminary labeling and deprotection studies; assay type: physicochemical; details: serine-based scaffold; beta-elimination under base, P—N bond labile to acid
Description: The instability of CTT54 and its protected precursors under basic conditions is due to beta-elimination on serine to yield a dehydroalanine derivative. The acid instability was centered on the P—N bond of CTT54, which precluded the use of acid modifiers in HPLC mobile phases. […] The homoserine analog was known initially as hCTT54 and later, more formally, as CTT1000. The 2(3-hydroxypropyl)glycine is known as TG97 and CTT2000. The base stability was expected as the beta-elimination problem associated with phosphorylated serine residue would be blocked. However, the acid stability was unexpected.

[3] = system: tumor; experiment: Uptake over time in the fraction associated with the tumor; details: in vivo
Description: Following administration of the chelated PSMA inhibitors herein, the imaging time may be altered to alter and/or optimize imaging characteristics.

Chain of PSMA (Q04609 whole entry): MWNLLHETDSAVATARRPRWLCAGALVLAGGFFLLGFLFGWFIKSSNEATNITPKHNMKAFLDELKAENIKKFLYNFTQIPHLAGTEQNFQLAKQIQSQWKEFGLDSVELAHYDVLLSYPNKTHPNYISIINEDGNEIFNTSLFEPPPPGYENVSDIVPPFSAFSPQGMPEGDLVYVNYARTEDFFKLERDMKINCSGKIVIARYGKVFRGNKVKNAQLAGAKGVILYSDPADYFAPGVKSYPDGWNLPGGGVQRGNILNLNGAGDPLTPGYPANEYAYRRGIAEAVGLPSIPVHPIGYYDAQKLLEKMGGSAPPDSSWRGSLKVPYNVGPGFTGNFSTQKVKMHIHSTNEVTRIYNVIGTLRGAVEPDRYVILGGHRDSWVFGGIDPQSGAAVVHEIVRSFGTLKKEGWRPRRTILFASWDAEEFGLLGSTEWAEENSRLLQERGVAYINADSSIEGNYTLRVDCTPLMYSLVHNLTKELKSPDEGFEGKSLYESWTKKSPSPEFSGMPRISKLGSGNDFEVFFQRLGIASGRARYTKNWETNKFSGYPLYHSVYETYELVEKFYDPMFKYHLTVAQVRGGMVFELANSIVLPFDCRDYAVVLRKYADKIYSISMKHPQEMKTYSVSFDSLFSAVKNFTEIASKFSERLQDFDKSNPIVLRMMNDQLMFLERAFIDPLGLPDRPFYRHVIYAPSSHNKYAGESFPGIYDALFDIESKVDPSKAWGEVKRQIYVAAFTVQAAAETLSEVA

| Structure (SMILES) | pIC50 [1] | acid and base stability [2] | uptake in the fraction associated with the tumor over time [3] |
| --- | --- | --- | --- |
| N[C@@H](CCC(=O)N[C@@H](CCOP(=O)(O)N[C@@H](CCC(=O)O)C(=O)O)C(=O)O)C(=O)O [CTT1000] | 7.82 |  |  |
| N[C@@H](CCC(=O)N[C@@H](COP(=O)(O)N[C@@H](CCC(=O)O)C(=O)O)C(=O)O)C(=O)O [CTT-54, L-[…]- glutamyl-O-[{[(1S)-1,3-dicarboxy-propyl]amino} (hydroxy)phosphoryl]-L-serine] |  | acid and base stability issues were noted | continues to increase over time |
